What was measured:
GSPT1 = target: T1, GSPT1 (Homo sapiens, UniProt P15170+Q96SW2); assay: Western-blot assay of substrate protein degradation in hPBMCs, GSPT1; type: cell-based; conditions: 24 hours of compound treatment, compounds tested at 50 nM and 500 nM (concentration of the table not stated)
T1 construct: endogenous in cells; host or cells: hPBMCs (Milecell Biotechnologies)

IKZF3 = target: T2, IKZF3 (Homo sapiens, UniProt Q96SW2+Q9UKT9); assay: Western-blot assay of substrate protein degradation in hPBMCs, IKZF3; type: cell-based; conditions: 24 hours of compound treatment, compounds tested at 50 nM and 500 nM (concentration of the table not stated)
T2 construct: endogenous in cells; host or cells: hPBMCs (Milecell Biotechnologies)

WEE1 = target: T3, WEE1 (Homo sapiens, UniProt P30291+Q96SW2); assay: Western-blot assay of substrate protein degradation in hPBMCs, WEE1; type: cell-based; conditions: 24 hours of compound treatment, compounds tested at 50 nM and 500 nM (concentration of the table not stated)
T3 construct: endogenous in cells; host or cells: hPBMCs (Milecell Biotechnologies)
T3 sequence (P30291 whole entry): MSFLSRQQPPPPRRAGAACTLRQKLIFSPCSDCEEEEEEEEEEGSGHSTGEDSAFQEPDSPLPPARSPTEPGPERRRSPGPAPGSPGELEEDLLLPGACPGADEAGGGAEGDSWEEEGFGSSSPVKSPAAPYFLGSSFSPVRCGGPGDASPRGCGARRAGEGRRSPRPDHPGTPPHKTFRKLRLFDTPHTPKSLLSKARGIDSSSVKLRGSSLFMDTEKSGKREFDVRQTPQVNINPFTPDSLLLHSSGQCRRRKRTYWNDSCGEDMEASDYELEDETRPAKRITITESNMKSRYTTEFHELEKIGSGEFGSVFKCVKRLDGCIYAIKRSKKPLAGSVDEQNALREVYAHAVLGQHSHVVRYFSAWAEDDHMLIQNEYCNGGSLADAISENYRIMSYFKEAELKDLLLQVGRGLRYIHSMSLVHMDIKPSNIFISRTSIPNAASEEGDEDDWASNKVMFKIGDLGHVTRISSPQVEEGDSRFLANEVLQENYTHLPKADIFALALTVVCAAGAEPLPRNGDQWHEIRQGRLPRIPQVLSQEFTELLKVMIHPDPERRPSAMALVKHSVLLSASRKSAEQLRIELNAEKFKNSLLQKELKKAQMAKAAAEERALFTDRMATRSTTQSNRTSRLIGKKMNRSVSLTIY
T3 sequence (Q96SW2 whole entry): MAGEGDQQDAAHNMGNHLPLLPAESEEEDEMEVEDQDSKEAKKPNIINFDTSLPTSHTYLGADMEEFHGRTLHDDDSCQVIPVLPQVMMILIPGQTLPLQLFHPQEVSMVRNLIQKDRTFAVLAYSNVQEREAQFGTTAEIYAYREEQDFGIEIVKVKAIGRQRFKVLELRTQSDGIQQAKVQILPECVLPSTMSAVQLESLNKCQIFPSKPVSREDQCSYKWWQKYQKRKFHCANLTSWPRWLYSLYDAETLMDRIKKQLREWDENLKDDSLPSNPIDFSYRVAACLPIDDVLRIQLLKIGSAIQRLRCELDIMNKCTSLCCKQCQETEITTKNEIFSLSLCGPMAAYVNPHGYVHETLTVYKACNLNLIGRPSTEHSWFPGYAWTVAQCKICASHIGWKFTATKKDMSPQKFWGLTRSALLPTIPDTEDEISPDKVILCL
T3 sequence (Q16531 whole entry partner): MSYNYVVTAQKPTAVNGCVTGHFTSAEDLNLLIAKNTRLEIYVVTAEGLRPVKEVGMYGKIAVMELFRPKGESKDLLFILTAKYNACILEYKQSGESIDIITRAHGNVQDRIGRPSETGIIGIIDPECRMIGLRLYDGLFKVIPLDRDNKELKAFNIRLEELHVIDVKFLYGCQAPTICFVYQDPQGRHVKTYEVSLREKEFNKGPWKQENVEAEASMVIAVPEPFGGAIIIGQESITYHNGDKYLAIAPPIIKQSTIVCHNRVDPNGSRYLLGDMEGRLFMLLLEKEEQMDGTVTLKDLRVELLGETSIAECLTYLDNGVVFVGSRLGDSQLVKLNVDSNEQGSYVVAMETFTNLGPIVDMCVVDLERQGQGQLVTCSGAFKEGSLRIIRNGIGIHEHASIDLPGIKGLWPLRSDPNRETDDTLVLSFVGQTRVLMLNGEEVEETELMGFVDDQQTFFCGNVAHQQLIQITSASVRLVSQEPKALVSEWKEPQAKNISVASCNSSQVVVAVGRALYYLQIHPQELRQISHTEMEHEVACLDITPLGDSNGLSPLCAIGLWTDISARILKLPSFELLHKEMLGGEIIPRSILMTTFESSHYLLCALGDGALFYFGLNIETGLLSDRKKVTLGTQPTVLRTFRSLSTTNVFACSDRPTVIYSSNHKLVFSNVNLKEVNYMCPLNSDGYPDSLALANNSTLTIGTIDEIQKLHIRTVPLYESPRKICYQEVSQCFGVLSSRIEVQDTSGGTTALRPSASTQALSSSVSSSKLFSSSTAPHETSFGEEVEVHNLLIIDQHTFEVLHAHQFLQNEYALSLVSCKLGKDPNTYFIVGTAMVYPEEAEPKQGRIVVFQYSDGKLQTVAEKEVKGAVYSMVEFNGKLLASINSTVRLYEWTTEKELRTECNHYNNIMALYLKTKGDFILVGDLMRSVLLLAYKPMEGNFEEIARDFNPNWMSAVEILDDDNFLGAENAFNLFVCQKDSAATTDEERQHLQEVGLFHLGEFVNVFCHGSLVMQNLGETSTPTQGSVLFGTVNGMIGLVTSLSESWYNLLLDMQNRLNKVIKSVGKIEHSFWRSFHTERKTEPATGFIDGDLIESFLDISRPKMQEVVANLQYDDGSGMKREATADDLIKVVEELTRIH

[1] = target: T4, human Cereblon WT GST-tagged protein (Homo sapiens, UniProt Q96SW2); assay: CRBN-binding affinity by HTRF (CEREBLON BINDING kit); conditions: HTRF inhibitory activity, CEREBLON BINDING kit; read-out: HTRF IC50
T4 construct: purchased CISBIO 64BDCRBNPEH
T4 sequence (Q96SW2 whole entry): as the sequence (Q96SW2 whole entry) above
Protocol: The CEREBLON BINDING kits (specification: 10,000 tests; product number: Catalog # 64BDCRBNPEH; CISBIO company) was used to determine the CRBN binding ability of the compounds to be tested through a HTRF method (homogeneous time-resolved fluorescence). The specific methods are as follows: • 1. […] Specifically, diluent #9 (1X) solution was used as the diluent, and multiple concentration gradients were set. […] Then, 2.5 µL of human Cereblon WT GST-tagged protein solution was added to each well. Finally, 5 µL of the thoroughly mixed Thalidomide-Re reagent and GST Eu antibody working solution were added to each of the aforementioned wells. […] The blank control wells were sequentially added with 2.5 µL of diluent #9 (1X) solution, 2.5 µL of binding buffer, and 5 µL of thoroughly mixed Thalidomide-Re reagent and GST Eu antibody working solution. • 4.

CK1α = target: T5, CK1α (Homo sapiens, UniProt P48729+Q96SW2); assay: Western-blot assay of substrate protein degradation in hPBMCs, CK1α; type: cell-based; conditions: 24 hours of compound treatment, compounds tested at 50 nM and 500 nM (concentration of the table not stated)
T5 construct: endogenous in cells; host or cells: hPBMCs (Milecell Biotechnologies)
T5 sequence (P48729 whole entry): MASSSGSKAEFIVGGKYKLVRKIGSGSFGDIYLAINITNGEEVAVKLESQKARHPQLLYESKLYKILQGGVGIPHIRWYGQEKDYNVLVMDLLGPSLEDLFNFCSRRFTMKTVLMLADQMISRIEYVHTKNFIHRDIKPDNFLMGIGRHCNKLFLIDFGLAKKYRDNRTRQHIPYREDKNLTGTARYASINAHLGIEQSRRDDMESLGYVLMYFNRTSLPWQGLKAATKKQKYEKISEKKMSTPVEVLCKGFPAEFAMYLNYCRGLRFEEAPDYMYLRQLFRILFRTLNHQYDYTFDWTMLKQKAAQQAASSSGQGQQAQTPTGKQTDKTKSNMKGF
T5 sequence (Q96SW2 whole entry): as the sequence (Q96SW2 whole entry) above
T5 sequence (Q16531 whole entry partner): as the sequence (Q16531 whole entry partner) above

IKZF2 = target: T6, IKZF2 (Homo sapiens, UniProt Q96SW2+Q9UKS7); assay: Western-blot assay of substrate protein degradation in hPBMCs, IKZF2; type: cell-based; conditions: 24 hours of compound treatment, compounds tested at 50 nM and 500 nM (concentration of the table not stated)
T6 construct: endogenous in cells; host or cells: hPBMCs (Milecell Biotechnologies)
T6 sequence (Q9UKS7 whole entry): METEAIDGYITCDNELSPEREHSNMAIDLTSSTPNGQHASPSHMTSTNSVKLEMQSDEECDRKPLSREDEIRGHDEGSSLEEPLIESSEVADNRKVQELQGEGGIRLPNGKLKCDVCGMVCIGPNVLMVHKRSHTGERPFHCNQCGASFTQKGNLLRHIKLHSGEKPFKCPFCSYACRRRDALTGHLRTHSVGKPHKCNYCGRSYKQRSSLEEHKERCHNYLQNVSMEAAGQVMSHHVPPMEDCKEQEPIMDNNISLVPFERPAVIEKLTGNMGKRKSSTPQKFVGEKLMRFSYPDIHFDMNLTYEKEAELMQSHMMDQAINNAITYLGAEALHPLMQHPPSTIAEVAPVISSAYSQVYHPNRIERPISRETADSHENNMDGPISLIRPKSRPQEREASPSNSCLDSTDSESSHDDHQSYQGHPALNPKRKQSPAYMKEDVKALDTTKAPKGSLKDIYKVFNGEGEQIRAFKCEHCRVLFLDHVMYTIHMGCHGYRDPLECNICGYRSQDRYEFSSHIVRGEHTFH
T6 sequence (Q96SW2 whole entry): as the sequence (Q96SW2 whole entry) above
T6 sequence (Q16531 whole entry partner): as the sequence (Q16531 whole entry partner) above

IKZF1 = target: T7, IKZF1 (Homo sapiens, UniProt Q13422+Q96SW2); assay: Western-blot assay of substrate protein degradation in hPBMCs, IKZF1; type: cell-based; conditions: 24 hours of compound treatment, compounds tested at 50 nM and 500 nM (concentration of the table not stated)
T7 construct: endogenous in cells; host or cells: hPBMCs (Milecell Biotechnologies)
T7 sequence (Q13422 whole entry): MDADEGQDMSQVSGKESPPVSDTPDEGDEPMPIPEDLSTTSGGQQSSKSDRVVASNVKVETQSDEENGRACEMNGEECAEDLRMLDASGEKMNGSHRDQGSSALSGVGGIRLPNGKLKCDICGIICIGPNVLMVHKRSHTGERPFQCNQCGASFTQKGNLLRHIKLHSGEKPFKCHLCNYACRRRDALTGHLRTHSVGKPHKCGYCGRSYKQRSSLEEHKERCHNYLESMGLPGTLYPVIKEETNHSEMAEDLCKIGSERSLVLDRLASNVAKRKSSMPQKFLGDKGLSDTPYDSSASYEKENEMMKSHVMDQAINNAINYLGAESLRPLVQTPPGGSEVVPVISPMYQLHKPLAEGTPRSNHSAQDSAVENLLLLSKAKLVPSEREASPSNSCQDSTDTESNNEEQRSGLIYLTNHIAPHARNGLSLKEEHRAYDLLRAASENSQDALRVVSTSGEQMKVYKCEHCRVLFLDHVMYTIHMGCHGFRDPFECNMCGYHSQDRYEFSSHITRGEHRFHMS
T7 sequence (Q96SW2 whole entry): as the sequence (Q96SW2 whole entry) above
T7 sequence (Q16531 whole entry partner): as the sequence (Q16531 whole entry partner) above

T1 sequence (P15170 whole entry): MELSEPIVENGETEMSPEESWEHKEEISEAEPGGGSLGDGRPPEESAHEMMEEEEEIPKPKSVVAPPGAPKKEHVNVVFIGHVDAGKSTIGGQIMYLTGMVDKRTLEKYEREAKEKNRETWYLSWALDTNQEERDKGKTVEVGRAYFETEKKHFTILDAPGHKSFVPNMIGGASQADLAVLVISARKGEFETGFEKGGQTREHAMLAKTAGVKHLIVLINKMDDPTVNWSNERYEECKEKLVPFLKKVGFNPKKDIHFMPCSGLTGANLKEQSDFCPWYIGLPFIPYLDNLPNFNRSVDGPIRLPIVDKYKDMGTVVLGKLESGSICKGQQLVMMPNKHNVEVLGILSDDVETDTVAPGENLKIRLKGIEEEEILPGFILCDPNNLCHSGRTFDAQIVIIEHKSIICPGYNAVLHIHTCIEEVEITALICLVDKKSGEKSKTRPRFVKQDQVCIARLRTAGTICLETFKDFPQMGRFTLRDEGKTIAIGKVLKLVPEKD
T1 sequence (Q96SW2 whole entry): as the sequence (Q96SW2 whole entry) above
T1 sequence (Q16531 whole entry partner): as the sequence (Q16531 whole entry partner) above

Structure (SMILES)	GSPT1 substrate protein remaining % (GSPT1)	IKZF3 substrate protein remaining % (IKZF3)	Weel substrate protein remaining % (WEE1)	IC50 [1] [µM]	CK1a substrate protein remaining % (CK1α)	IKZF2 substrate protein remaining % (IKZF2)	IKZF 1 substrate protein remaining % (IKZF1)
O=C1CCC(N2Cc3cc(CN4CCN(c5ccc(C(F)(F)F)cn5)CC4)ccc3C2=O)C(=O)N1 (stereo not drawn) [GT-04433, 3-(1-oxo-5-((4-(5-(trifluoromethyl)pyridin-2-yl)piperazin-1-yl)methyl)isoindolin-2-yl)piperidine-2,6-dione]	A (0% ≤ substrate protein remaining % ≤ 80%)	B (80%< substrate protein remaining %≤ 100%)	B (80%< substrate protein remaining %≤ 100%)	1 to 1.5	B (80%< substrate protein remaining %≤ 100%)	B (80%< substrate protein remaining %≤ 100%)	B (80%< substrate protein remaining %≤ 100%)
O=C1CCC(N2Cc3cc(CN4CCN(c5ncccc5C(F)(F)F)CC4)ccc3C2=O)C(=O)N1 (stereo not drawn) [GT-04434, 3-(1-oxo-5-((4-(3-(trifluoromethyl)pyridin-2-yl)piperazin-1-yl)methyl)isoindolin-2-yl)piperidine-2,6-dione]	A (0% ≤ substrate protein remaining % ≤ 80%)	B (80%< substrate protein remaining %≤ 100%)	B (80%< substrate protein remaining %≤ 100%)	0.5 to 1	B (80%< substrate protein remaining %≤ 100%)	B (80%< substrate protein remaining %≤ 100%)	B (80%< substrate protein remaining %≤ 100%)
Cc1ccc(N2CCN(Cc3ccc4c(c3)CN(C3CCC(=O)NC3=O)C4=O)CC2)c(C)c1 (stereo not drawn) [GT-04439, 3-(5-((4-(2,4-dimethylphenyl)piperazin-1-yl)methyl)-1-oxoisoindolin-2-yl)piperidine-2,6-dione]	A (0% ≤ substrate protein remaining % ≤ 80%)	A (0% ≤ substrate protein remaining % ≤ 80%)	A (0% ≤ substrate protein remaining % ≤ 80%)	1 to 1.5	A (0% ≤ substrate protein remaining % ≤ 80%)	A (0% ≤ substrate protein remaining % ≤ 80%)	A (0% ≤ substrate protein remaining % ≤ 80%)
O=C1CCC(N2Cc3cc(CN4CCN(c5ccccn5)CC4)ccc3C2=O)C(=O)N1 (stereo not drawn) [GT-04449, 3-(1-oxo-5-((4-(pyridin-2-yl)piperazin-1-yl)methyl)isoindolin-2-yl)piperidine-2,6-dione]	A (0% ≤ substrate protein remaining % ≤ 80%)	A (0% ≤ substrate protein remaining % ≤ 80%)	A (0% ≤ substrate protein remaining % ≤ 80%)	0.5 to 1	A (0% ≤ substrate protein remaining % ≤ 80%)	A (0% ≤ substrate protein remaining % ≤ 80%)	A (0% ≤ substrate protein remaining % ≤ 80%)
O=C1CCC(N2Cc3cc(CN4CCN(c5ccncc5)CC4)ccc3C2=O)C(=O)N1 (stereo not drawn) [GT-04450, 3-(1-oxo-5-((4-(pyridin-4-yl)piperazin-1-yl)methyl)isoindolin-2-yl)piperidine-2,6-dione]	A (0% ≤ substrate protein remaining % ≤ 80%)	B (80%< substrate protein remaining %≤ 100%)	B (80%< substrate protein remaining %≤ 100%)	0.5 to 1	B (80%< substrate protein remaining %≤ 100%)	B (80%< substrate protein remaining %≤ 100%)	B (80%< substrate protein remaining %≤ 100%)
O=C1CCC(N2Cc3cc(CN4CCN(c5ccc(C(F)(F)F)cc5)CC4)ccc3C2=O)C(=O)N1 (stereo not drawn) [GT-04451, 3-(1-oxo-5-((4-(4-(trifluoromethyl)phenyl)piperazin-1-yl)methyl)isoindolin-2-yl)piperidine-2,6-dione]	A (0% ≤ substrate protein remaining % ≤ 80%)	B (80%< substrate protein remaining %≤ 100%)	B (80%< substrate protein remaining %≤ 100%)	1 to 1.5	B (80%< substrate protein remaining %≤ 100%)	B (80%< substrate protein remaining %≤ 100%)	B (80%< substrate protein remaining %≤ 100%)
O=C1CCC(N2Cc3cc(CN4CCN(c5ccc(Cl)cc5Cl)CC4)ccc3C2=O)C(=O)N1 (stereo not drawn) [GT-04464, 3-(5-((4-(2,4-dichlorophenyl)piperazin-1-yl)methyl)-1-oxoisoindolin-2-yl)piperidine-2,6-dione]	A (0% ≤ substrate protein remaining % ≤ 80%)	B (80%< substrate protein remaining %≤ 100%)	B (80%< substrate protein remaining %≤ 100%)	1 to 1.5	B (80%< substrate protein remaining %≤ 100%)	A (0% ≤ substrate protein remaining % ≤ 80%)	B (80%< substrate protein remaining %≤ 100%)
O=C1CCC(N2Cc3cc(CN4CCN(c5cccnn5)CC4)ccc3C2=O)C(=O)N1 (stereo not drawn) [GT-04473, 3-(1-oxo-5-((4-(pyridazin-3-yl)piperazin-1-yl)methyl)isoindolin-2-yl)piperidine-2,6-dione]	A (0% ≤ substrate protein remaining % ≤ 80%)	B (80%< substrate protein remaining %≤ 100%)	A (0% ≤ substrate protein remaining % ≤ 80%)	0.5 to 1	B (80%< substrate protein remaining %≤ 100%)	B (80%< substrate protein remaining %≤ 100%)	A (0% ≤ substrate protein remaining % ≤ 80%)
O=C1CCC(N2Cc3cc(CN4CCN(c5ncc(Cl)cc5Cl)CC4)ccc3C2=O)C(=O)N1 (stereo not drawn) [GT-04479, 3-(5-((4-(3,5-dichloropyridin-2-yl)piperazin-1-yl)methyl)-1-oxoisoindolin-2-yl)piperidine-2,6-dione]	A (0% ≤ substrate protein remaining % ≤ 80%)	A (0% ≤ substrate protein remaining % ≤ 80%)	B (80%< substrate protein remaining %≤ 100%)	0.5 to 1	B (80%< substrate protein remaining %≤ 100%)	A (0% ≤ substrate protein remaining % ≤ 80%)	B (80%< substrate protein remaining %≤ 100%)
O=C1CCC(N2Cc3cc(CN4CCN(c5ncc(C(F)(F)F)cc5Cl)CC4)ccc3C2=O)C(=O)N1 (stereo not drawn) [GT-04480, 3-(5-((4-(3-chloro-5-(trifluoromethyl)pyridin-2-yl)piperazin-1-yl)methyl)-1-oxoisoindolin-2-yl)piperidine-2,6-dione]	A (0% ≤ substrate protein remaining % ≤ 80%)	A (0% ≤ substrate protein remaining % ≤ 80%)	A (0% ≤ substrate protein remaining % ≤ 80%)	1.5 to 1.9	A (0% ≤ substrate protein remaining % ≤ 80%)	A (0% ≤ substrate protein remaining % ≤ 80%)	A (0% ≤ substrate protein remaining % ≤ 80%)
O=C1CCC(N2Cc3cc(CN4CCN(c5ccncc5Cl)CC4)ccc3C2=O)C(=O)N1 (stereo not drawn) [GT-04481, 3-(5-((4-(3-chloropyridin-4-yl)piperazin-1-yl)methyl)-1-oxoisoindolin-2-yl)piperidine-2,6-dione]	A (0% ≤ substrate protein remaining % ≤ 80%)	B (80%< substrate protein remaining %≤ 100%)	A (0% ≤ substrate protein remaining % ≤ 80%)	0.5 to 1	A (0% ≤ substrate protein remaining % ≤ 80%)	A (0% ≤ substrate protein remaining % ≤ 80%)	A (0% ≤ substrate protein remaining % ≤ 80%)
O=C1CCC(N2Cc3cc(CN4CCN(c5ccc(Cl)nn5)CC4)ccc3C2=O)C(=O)N1 (stereo not drawn) [GT-04482, 3-(5-((4-(6-chloropyridazin-3-yl)piperazin-1-yl)methyl)-1-oxoisoindolin-2-yl)piperidine-2,6-dione]	A (0% ≤ substrate protein remaining % ≤ 80%)	B (80%< substrate protein remaining %≤ 100%)	A (0% ≤ substrate protein remaining % ≤ 80%)	0.5 to 1	A (0% ≤ substrate protein remaining % ≤ 80%)	A (0% ≤ substrate protein remaining % ≤ 80%)	B (80%< substrate protein remaining %≤ 100%)
